Like-named read-outs stand apart in the source and are kept apart here.
Tested on: ATF4 luciferase reporter
Assay: ATF4 luciferase reporter assay (Cell-luc) in HEK293T cells
Type: cell-based, human
Excerpt: FIGS. 1A-1C. […]
To identify inhibitors of PERK signaling, we engineered a reporter that allows monitoring of PERK activation in living cells. To this end, we constructed a retroviral vector containing the open-reading frame of firefly luciferase fused to the 5′UTR of ATF4 mRNA (FIG. 1A), which contains two short open-reading frames (uORFs) that control ATF4 translation in a stress-dependent manner. After infection, we established a HEK293T cell line harboring the stably integrated reporter. […] This format was used to screen 106,281 compounds covering a wide chemical space. We identified 460 hits (0.43%) (FIG. 1C), which were further validated in an 8-point dose-response assay using the same reporter. We further triaged the compounds by discarding inhibitors that also affected the IRE1 branch of the UPR using an XBP1-luciferase splicing reporter. […] We next used an orthogonal secondary screen that employed a different reporter (bi-cistronic ATF4-dGFPIRES-mCherry) stably integrated into a different cell line (U20S cells). The read-out of this latter screen was microscopy-based, which allowed us to simultaneously assess acute toxicity by cell counting, further reducing the number of viable hits to 77. As a tertiary screen, we tested compounds for their ability to inhibit ER stress-elicited induction of endogenous ATF4 by Western blot analysis. Twenty-eight compounds passed this test and were analyzed further.
ATF4 reporters were constructed by fusing the human full-length ATF4 5′-UTR (NCBI Accession BC022088.2) in front of the firefly luciferase (FLuc) or a destabilized eGFP (dEGFP) coding sequences lacking the initiator methionine.
The ATF4-FLuc reporter was generated by cloning a PCR-product containing the ATF4 full-length 5′-UTR (from +1 position a the transcription start site down to one nucleotide after the terminator codon of the second uORF) flanked by KpnI/XhoI and BglII sites at the 5′ and 3′ ends, respectively, into the KpnI-BglII sites of pCAX-F-XBP1-Luc. The resulting construct, pCAX-ATF4-FLuc, was then digested with BamHI, blunted with T4 DNA polymerase, and then digested with XhoI. The resulting fragment was then subcloned into the retroviral expression vector pLPCX (Clontech) after digesting it with HindIII, blunting with T4 DNA polymerase and then digesting with XhoI to generate pLPCX-ATF4-FLuc (DAA-312). DAA-312 was used to produce recombinant retroviruses using standard methods and the resulting viral supernatant was used to transduce HEK293T cells, which were then subsequently selected with puromycin to generate a stable cell line employed in the primary screen.
HEK293T cells carrying the ATF4 luciferase reporter were plated on poly-lysine coated 384 well plates (Greiner) at 30,000 cells per well. […] Luminescence was measured using One Glo (Promega) as specified by the manufacturer. […] Thus, these were considered unique to the PERK branch and were cherry-picked for further analysis.

[1] = Homo sapiens, HEK-293T, ATF4 luciferase reporter, HEK293T cells, read-out: IC50 (nM) Cell-luc
[2] = ATF4 luciferase reporter, HEK293T cells, read-out: IC50 (nM) Cell-luc
[3] = cultured HEK293T cells, 2 μg/ml tunicamycin, 7 h, synthesized isomers, read-out: IC50, inhibition of the ATF4-luciferase reporter

IC50 [1]	SMILES	further results
3 nM	O=C(COc1ccc(Cl)cc1)N[C@H]1CC[C@H](NC(=O)COc2ccc(Cl)cc2)CC1 [750213.2]	–
–	C#CCN(C(=O)COc1ccc(Cl)cc1)[C@H]1CC[C@H](NC(=O)COc2ccc(Cl)cc2)CC1 [755854.1]	IC50 [2]: 2700 nM
–	C#CCN(C(=O)COc1ccc(Cl)cc1)[C@H]1CC[C@H](NC(=O)COc2ccc(Cl)cc2)CC1 [755854.2]	IC50 [2]: 440 nM
–	C#CCN(C(=O)COc1ccc(Cl)cc1)[C@H]1CC[C@H](NC(=O)COc2ccc(Cl)cc2)CC1 [755854.3]	IC50 [2]: 100 nM
–	C#CCN(C(=O)COc1ccc(Cl)cc1)[C@H]1CC[C@H](NC(=O)COc2ccc(Cl)cc2)CC1 [755854.4]	IC50 [2]: 64 nM
–	N=C(COc1ccc(Cl)cc1)N[C@H]1CC[C@H](NC(=O)COc2ccc(Cl)cc2)CC1 [757264-L3]	IC50 [2]: 60 nM
–	N=C(COc1ccc(Cl)cc1)N[C@H]1CC[C@H](NC(=O)COc2ccc(Cl)cc2)CC1 [757264.1]	IC50 [2]: 100 nM
–	N=C(COc1ccc(Cl)cc1)N[C@H]1CC[C@H](NC(=O)COc2ccc(Cl)cc2)CC1 [757264.2]	IC50 [2]: 34 nM
–	O=C(COc1ccc(Cl)cc1)N[C@H]1CC[C@H](NC(=O)COc2ccc(Cl)cc2)CC1 [Trans-ISRIB, 2-(4-Chlorophenoxy)-N-[(1r, 4r)-4-[2-(4-chlorophenoxy)acetamido]cyclohexyl]acetamide]	potency of trans-ISRIB relative to cis-ISRIB (ATF4-luciferase reporter): 100 fold; IC50 [3]: 5 nM
–	O=C(COc1ccc(Cl)cc1)N[C@H]1CC[C@@H](NC(=O)COc2ccc(Cl)cc2)CC1 [cis-ISRIB, 2-(4-chlorophenoxy)-N-[(1s, 4s)-4-[2-(4-chlorophenoxy)acetamido]cyclohexyl]acetamide]	IC50 [3]: 600 nM
53 nM	O=C(COc1ccc(Cl)cc1)Nc1ccc(NC(=O)COc2ccc(Cl)cc2)cc1 [compound 102509]	–
250 nM	COc1ccc(OCC(=O)N[C@H]2CC[C@H](NC(=O)COc3ccc(Cl)cc3)CC2)cc1 [compound 751591]	–
> 10000 nM	O=C(COc1ccc(Cl)cc1)N[C@H]1CC[C@H](NC(=O)COc2ccc(OCc3ccccc3)cc2)CC1 [compound 751592]	–
384 nM	O=C(COc1ccccc1)N[C@H]1CC[C@H](NC(=O)COc2ccc(Cl)cc2)CC1 [compound 751593]	–
69 nM	O=C(COc1ccc(Cl)cc1)N[C@H]1CC[C@H](NC(=O)COc2ccc(Cl)cc2Cl)CC1 [compound 751594]	–
> 10000 nM	Cc1ccc(CC(=O)N[C@H]2CC[C@H](NC(=O)COc3ccc(Cl)cc3)CC2)cc1 [compound 751595]	–
> 10000 nM	O=C(COc1ccc(Cl)cc1)N[C@H]1CC[C@H](NC(=O)c2ccc(Cl)cc2)CC1 [compound 751596]	–
> 10000 nM	O=C(COc1ccc(O)cc1)N[C@H]1CC[C@H](NC(=O)COc2ccc(Cl)cc2)CC1 [compound 751597]	–
> 10000 nM	COc1ccc(OCC(=O)N[C@H]2CC[C@H](NC(=O)COc3ccc(OC)cc3)CC2)cc1 [compound 754123]	–
> 10000 nM	O=C(COc1ccc(Cl)cc1)N[C@H]1CC[C@@H](NC(=O)COc2ccc(Cl)cc2Cl)CC1 [compound 754124]	–
> 10000 nM	O=C(CCc1ccc(Cl)cc1)N[C@H]1CC[C@H](NC(=O)CCc2ccc(Cl)cc2)CC1 [compound 754125]	–
327 nM	Cc1ccc(OCC(=O)N[C@H]2CC[C@H](NC(=O)COc3ccc(C)cc3)CC2)cc1 [compound 754126]	–
13 nM	O=C(COc1ccc(C(F)(F)F)cc1)N[C@H]1CC[C@H](NC(=O)COc2ccc(C(F)(F)F)cc2)CC1 [compound 754127]	–
95 nM	Cc1ccc(OCC(=O)N[C@H]2CC[C@H](NC(=O)COc3ccc(Cl)cc3)CC2)cc1 [compound 754128]	–
142 nM	O=C(COc1ccc(Cl)cc1)N[C@H]1C[C@H](NC(=O)COc2ccc(Cl)cc2)C1 [compound 755855]	–
1000 nM	O=C(COc1ccc(Cl)cc1)N[C@H]1C[C@@H](NC(=O)COc2ccc(Cl)cc2)C1 [compound 755856]	–
> 10000 nM	N#Cc1ccc(OCC(=O)N[C@H]2CC[C@H](NC(=O)COc3ccc(C#N)cc3)CC2)cc1 [compound 757095]	–

IC50 [1]	SMILES	further results
> 10000 nM	C[S+]([O-])c1ccc(OCC(=O)N[C@H]2CC[C@H](NC(=O)COc3ccc([S+](C)[O-])cc3)CC2)cc1 (stereo partly shown) [compound 757096]	–
–	O=C(COc1ccc([N+](=O)[O-])cc1)N[C@H]1CC[C@H](NC(=O)COc2ccc([N+](=O)[O-])cc2)CC1 [compound 757130]	IC50 [2]: > 10000 nM
270 nM	O=C(COc1ccc(F)cc1)N[C@H]1CC[C@H](NC(=O)COc2ccc(F)cc2)CC1 [compound 757131]	–
3000 nM	C#C[C@]1(NC(=O)COc2ccc(Cl)cc2)CC[C@@H](NC(=O)COc2ccc(Cl)cc2)CC1 [compound 757132]	–
37 nM	C#C[C@]1(NC(=O)COc2ccc(Cl)cc2)CC[C@H](NC(=O)COc2ccc(Cl)cc2)CC1 [compound 757149]	–
48 nM	O=C(COc1ccc(F)cc1)N[C@H]1CC[C@H](NC(=O)COc2ccc(Cl)cc2)CC1 [compound 757257]	–
10 nM	O=C(COc1ccc(Cl)cc1)N[C@H]1CC[C@H](NC(=O)COc2ccc(C(F)(F)F)cc2)CC1 [compound 757258]	–
263 nM	N#Cc1ccc(OCC(=O)N[C@H]2CC[C@H](NC(=O)COc3ccc(Cl)cc3)CC2)cc1 [compound 757259]	–
> 10000 nM	C[S+]([O-])c1ccc(OCC(=O)N[C@H]2CC[C@H](NC(=O)COc3ccc(Cl)cc3)CC2)cc1 (stereo partly shown) [compound 757260]	–
> 10000 nM	O=C(COc1ccc(Cl)cc1)N[C@H]1CC[C@H](NC(=O)CSc2ccc(Cl)cc2)CC1 [compound 757261]	–
> 10000 nM	O=C(COc1ccc(Cl)cc1)N[C@H]1CC[C@H](NC(=O)C[S+]([O-])c2ccc(Cl)cc2)CC1 (stereo partly shown) [compound 757262]	–
> 10000 nM	O=C(COc1ccc(Cl)cc1)N[C@H]1CC[C@H](NC(=O)CS(=O)(=O)c2ccc(Cl)cc2)CC1 [compound 757263]	–
> 10000 nM	O=C(COc1ccc(Cl)cc1)N[C@H]1CC[C@H](NC(=O)CSc2ccccc2)CC1 [compound 811769]	–
900 nM	O=C(COc1ccc(Cl)cc1)N[C@H]1CC[C@H](NC(=O)CSc2ccc(F)cc2)CC1 [compound 811770]	–
> 10000 nM	O=C(COc1ccc(Cl)cc1)N[C@H]1C[C@H](NC(=O)CSc2ccc(Cl)cc2)C1 [compound 811771]	–
> 10000 nM	O=C(COc1ccc(Cl)cc1)N[C@H]1C[C@H](NC(=O)CSc2ccc(F)cc2)C1 [compound 811772]	–
> 10000 nM	O=C(COc1ccc(Cl)cc1)N[C@H]1C[C@H](NC(=O)CSc2ccccc2)C1 [compound 811773]	–
2700 nM	O=C(CCCC[C@H]1SCC2NC(=O)NC21)NCCOCCOCCOCCn1cc([C@]2(NC(=O)COc3ccc(Cl)cc3)CC[C@H](NC(=O)COc3ccc(Cl)cc3)CC2)nn1 (stereo partly shown) [compound 835087]	–
700 nM	O=C(CNc1ccc(Cl)cc1)N[C@H]1CC[C@H](NC(=O)COc2ccc(Cl)cc2)CC1 [compound 835089]	–
170 nM	O=C(COc1ccc(Cl)cc1)N[C@H]1CC[C@H](NCCOc2ccc(Cl)cc2)CC1 [compound 835195]	–
1400 nM	O=C(COc1ccc(Cl)cc1)N[C@H]1CC[C@H](N(CCOc2ccc(Cl)cc2)CCOc2ccc(Cl)cc2)CC1 [compound 835196]	–
> 10000 nM	N=C(COc1ccc(Cl)cc1)N[C@H]1CC[C@H](N(Cc2cn(CCOCCOCCOCCNC(=O)CCCC[C@@H]3SCC4NC(=O)NC43)nn2)C(=O)COc2ccc(Cl)cc2)CC1 (stereo partly shown) [compound 835197]	–
> 10000 nM	CC(=O)c1ccc(OCC(=O)N[C@H]2CC[C@H](NC(=O)COc3ccc(Cl)cc3)CC2)cc1 [compound 843983]	–
1000 nM	CC(=O)c1cccc(OCC(=O)N[C@H]2CC[C@H](NC(=O)COc3ccc(Cl)cc3)CC2)c1 [compound 843984]	–
–	O=C(COc1ccc(Cl)cc1)N[C@H]1CC[C@H](NC(=O)COc2ccc(Cl)cc2[N+](=O)[O-])CC1 [compound 843987]	IC50 [2]: 75 nM
> 10000 nM	O=C(COc1ccc(Cl)cc1)NCc1cccc(NC(=O)COc2ccc(Cl)cc2)c1 [compound 873882]	–
2600 nM	C[C@@H]1NC(=O)N[C@@H]1CCCCCC(=O)NCCOCCOCCOCCn1cc([C@]2(NC(=O)COc3ccc(Cl)cc3)CC[C@H](NC(=O)COc3ccc(Cl)cc3)CC2)nn1 [compound 873883]	–

Reference: patent publication US9708247B2, “Modulators of the eIF2alpha pathway” (The Regents of the University of California, priority 2013, dated 2017)
